From PubChem BioAssay AID493198 (Southern Research Specialized Biocontainment Screening …, 2011)
Calls of active or inactive are those of the source. The rule behind the calls is not given here. Where a SMILES comes first, the peptide text is derived from it.

Legend:
[1] = system: Mycobacterium tuberculosis H37Rv growth in 7H9 media; assay: M. tuberculosis growth inhibition, dose response, H37Rv, purified and synthesized compounds (AID 493198); conditions: for IC90: 90% growth inhibition concentration
[2] = as above; conditions: Mycobacterium tuberculosis H37Rv growth in 7H9 media; at 100 µM (top of the series)

Structure (SMILES) | IC50 [1] | IC90 [1] | growth inhibition [2]
S=c1nc[nH]c2nc[nH]c12 | 1280 nM | 1760 nM | 
Cc1ccc2c(c1)c(C1=c3ccccc3=NC1=O)c(O)n2C | < 200 nM | 1870 nM | 
O=C(CSc1nc2ccccc2c(=O)[nH]1)NCc1ccc(Cl)cc1 | < 200 nM | 929 nM | 
CNc1nc(SCc2ccccc2Cl)nc2c1CCCC2 | < 200 nM | 5050 nM | 
COc1cc(NC(=O)C/C(C)=N/NC(=O)c2ccccn2)c(OC)cc1Cl | 1940 nM | 4880 nM | 
Cc1cccc(/C=C/C(=O)c2ccc([N+](=O)[O-])o2)c1 | < 200 nM | < 200 nM | 
Cc1ccc2ccc3ccc(C)nc3c2n1 | < 200 nM | < 200 nM | 
Cc1ccc(NC(=O)C2C3/C=C\CCCCC32)cc1C (centres undefined) | 1170 nM | 1840 nM | 
Oc1ccccc1/C=N/Nc1ccnc(SCc2ccccc2)n1 |  |  | 2.04% (inactive)
O=C(CSc1nc2ccccc2c(=O)[nH]1)NC1CCCCC1 | < 200 nM | < 200 nM | 
CCOC(=O)COn1c2c(c3c4no[n+]([O-])c4ccc31)CCCC2 | 1580 nM | 3110 nM | 
CCOC(=O)c1ccc(NC(=O)Cn2ncc(Cl)c(Cl)c2=O)cc1 | < 200 nM | 203 nM | 
CCOC(=O)C(C)Sc1ncnc2c1nnn2-c1ccc(F)cc1 (centres undefined) | < 200 nM | 7770 nM | 
CC(=NCc1ccc2c(c1)OCO2)C1=C(O)c2ccccc2C1=O | < 200 nM | 23100 nM | 
O=C(/C=C\c1cccs1)N1CCN(Cc2ccc3c(c2)OCO3)CC1 | 445 nM | 7480 nM | 
COC(=O)C(C)Oc1ccc(-c2nccc(-c3ccccn3)n2)cc1 (centres undefined) | 1190 nM | 2920 nM | 
CCOC(=O)CNC(=O)[C@H](Cc1ccccc1)NC(=O)OCc1ccccc1 (HELM PEPTIDE1{[O=C(OCc1ccccc1)[*:2]].F.G.[CCO[*:1]]}$$$$V2.0) | 1090 nM | 1860 nM | 
O=C(/C=C/c1ccccc1)N1CCN(CCN2C(=O)c3cccc4cccc(c34)C2=O)CC1 | 3470 nM | 5320 nM | 
c1ccc(/N=C2\N=C(Nc3ccccn3)c3ccccc32)nc1 | < 200 nM | < 200 nM | 
O=C(NCC(c1cccs1)N1CCOCC1)c1cc([N+](=O)[O-])cc([N+](=O)[O-])c1 (centres undefined) | < 200 nM | < 200 nM | 
Cc1nn2c(NCc3ccccn3)cc(C(C)C)nc2c1-c1ccccc1 | 1030 nM | 1560 nM | 
COC(=O)CCc1nc2c(C#N)c(-c3ccc(Cl)cc3)ccn2n1 | < 200 nM | 14000 nM | 
CC(C)NC(=O)c1sc(=S)n2c1[nH]c(=O)c1ccc(C(=O)NCCc3ccc(Cl)cc3)cc12 | < 200 nM | < 200 nM | 
COC(=O)c1cc(=O)n(-c2ccc(F)cc2)c(=Nc2ccc(F)cc2)s1 | < 200 nM | 1580 nM | 
CCOC(=O)COc1ccc(/C=C2\NC(=S)N(CC)C2=O)cc1 | 1310 nM | 5200 nM | 
Cc1nc(SCC(=O)NC2CCCCC2)[nH]c(=O)c1C | < 200 nM | < 200 nM | 
O=C1C(Br)=Cc2cccc3cccc1c23 | < 200 nM | < 200 nM | 
CCC(C)Nc1ccc(NC(C)CC)cc1 (centres undefined) | 609 nM | 1660 nM | 
COC(=O)C1CC(=O)N(c2ccc(OCc3ccccc3Cl)cc2)C1 (centres undefined) | < 200 nM | 18400 nM | 
CCc1ccc(/C=C2/C(=O)N(C)C(=S)N2CC(=O)OC)s1 | 2270 nM | 17700 nM | 
